{"source": "paper PMC3607207", "about": "(ACS combinatorial science, 2012)", "target": "mu opioid receptor (Rattus norvegicus, UniProt P33535)", "sequence (P33535 whole entry)": "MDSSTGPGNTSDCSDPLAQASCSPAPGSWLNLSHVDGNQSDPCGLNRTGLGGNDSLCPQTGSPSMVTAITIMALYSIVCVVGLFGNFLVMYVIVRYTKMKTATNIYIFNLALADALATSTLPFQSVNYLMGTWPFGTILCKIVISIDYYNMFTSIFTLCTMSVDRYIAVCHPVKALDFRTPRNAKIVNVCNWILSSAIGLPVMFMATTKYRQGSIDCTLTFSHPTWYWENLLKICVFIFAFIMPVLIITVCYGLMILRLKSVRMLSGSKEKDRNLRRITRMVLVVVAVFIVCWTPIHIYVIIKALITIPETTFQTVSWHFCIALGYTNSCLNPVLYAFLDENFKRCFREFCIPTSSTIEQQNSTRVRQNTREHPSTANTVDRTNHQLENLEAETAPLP", "assay": "competitive radio receptor binding assay, [3H]DAMGO, rat brain membranes", "conditions": "1 mg/ml (14.7 mM) imidazole", "note": "“Also recorded” adds a separate entry of the source."}
{"smiles": "c1c[nH]cn1", "note": "[imidazole]", "values": [{"measurement": "effect on binding of 3H-DAMGO to the mu opioid receptor", "result": "negligible inhibition; also recorded: No significant effect"}]}
